Our source for the IC50 values is patent US20210070748A1, “INHIBITORS OF BRUTONS TYROSINE KINASE” (Pharmacyclics LLC, priority 2015, published 2021).

Assay [1] addresses T1, BTK-WT (Homo sapiens, UniProt Q06187).
T1 construct: purified from insect cells as a full-length construct containing an N-terminal 6X-His tag; His6 (N); made in house; host or cells: insect cells (baculovirus Sf21 in Method B)
Kind of assay: Btk in vitro inhibitory activity (one of Method A TR-FRET, Method B electrophoretic mobility shift, Method C radiometric filter binding). The settings on record: D-compounds panel data; read-out: IC50 BTK-WT. The assay is classed as biochemical.

In assay [2] the target is T2, TEC (Homo sapiens, UniProt P42680).
T2 sequence (P42680 1-631): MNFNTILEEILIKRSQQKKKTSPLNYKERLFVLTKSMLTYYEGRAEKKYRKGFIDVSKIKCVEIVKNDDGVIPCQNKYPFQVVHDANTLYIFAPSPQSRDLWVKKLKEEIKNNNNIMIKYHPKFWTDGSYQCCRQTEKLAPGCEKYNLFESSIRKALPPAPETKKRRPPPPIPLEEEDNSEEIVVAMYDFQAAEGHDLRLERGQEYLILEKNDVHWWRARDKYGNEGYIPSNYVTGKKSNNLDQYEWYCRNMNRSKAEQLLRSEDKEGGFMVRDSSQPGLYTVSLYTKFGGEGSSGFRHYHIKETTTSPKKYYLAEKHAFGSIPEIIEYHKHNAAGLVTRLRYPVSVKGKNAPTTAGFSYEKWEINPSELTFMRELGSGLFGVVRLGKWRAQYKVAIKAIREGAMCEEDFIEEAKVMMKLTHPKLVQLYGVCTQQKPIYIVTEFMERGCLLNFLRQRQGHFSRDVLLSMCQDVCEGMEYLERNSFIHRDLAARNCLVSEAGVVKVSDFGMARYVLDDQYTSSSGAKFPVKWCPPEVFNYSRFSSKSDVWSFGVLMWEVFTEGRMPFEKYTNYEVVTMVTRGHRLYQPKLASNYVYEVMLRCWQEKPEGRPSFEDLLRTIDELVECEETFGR
Kind of assay: Inhibition of a panel of kinases, in vitro HotSpot kinase assay: TEC. The settings on record: D-compounds panel data; 1 μM ATP. It is filed as biochemical. The procedure:
The degree of inhibition of a panel of kinases is determined using the in vitro HotSpot kinase assay (purified enzymes, ^33P-ATP, an appropriate substrate and 1 μM ATP).

T1 sequence (Q06187 whole entry): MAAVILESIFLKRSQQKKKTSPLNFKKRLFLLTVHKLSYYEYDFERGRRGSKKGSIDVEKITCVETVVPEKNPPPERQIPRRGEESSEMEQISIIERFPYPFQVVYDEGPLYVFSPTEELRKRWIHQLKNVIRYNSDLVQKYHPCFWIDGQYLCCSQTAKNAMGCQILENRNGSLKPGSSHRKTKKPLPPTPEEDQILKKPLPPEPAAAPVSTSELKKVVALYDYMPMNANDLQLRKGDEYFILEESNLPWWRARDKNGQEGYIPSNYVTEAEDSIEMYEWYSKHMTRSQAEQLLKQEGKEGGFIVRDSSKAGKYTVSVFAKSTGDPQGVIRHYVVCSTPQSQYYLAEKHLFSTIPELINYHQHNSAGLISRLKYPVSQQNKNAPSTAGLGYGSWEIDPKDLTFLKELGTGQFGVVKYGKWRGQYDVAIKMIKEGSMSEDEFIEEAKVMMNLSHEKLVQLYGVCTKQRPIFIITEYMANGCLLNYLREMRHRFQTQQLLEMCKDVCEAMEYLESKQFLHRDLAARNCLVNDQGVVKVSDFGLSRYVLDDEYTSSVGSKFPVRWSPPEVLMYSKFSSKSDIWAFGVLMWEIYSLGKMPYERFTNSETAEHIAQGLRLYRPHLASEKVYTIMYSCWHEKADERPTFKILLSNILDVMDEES

As to `CCN(C)C(=O)N[C@@H]1CCCN(c2cnc(C(N)=O)c(Nc3cnn(C)c3)n2)[C@@H]1C` [Example D-304, 5-[(2R,3R)-3-{[ethyl(methyl)carbamoyl]amino}-2-methylpiperidin-1-yl]-3-[(1-methyl-1H-pyrazol-4-yl)amino]pyrazine-2-carboxamide], the concentration for half-maximal inhibition (IC50) in assay [1] is ≤ 0.01 µM; in assay [2], 0.01 to 0.1 µM.

`C[C@@H]1[C@H](NC(=O)c2ccc3cnn(C)c3c2)CCCN1c1cnc(C(N)=O)c(Nc2cnn(C)c2)n1` [Example D-259, N-[(2R,3R)-1-{5-carbamoyl-6-[(1-methyl-1H-pyrazol-4-yl)amino]pyrazin-2-yl}-2-methylpiperidin-3-yl]-1-methyl-1H-indazole-6-carboxamide]: the IC50 in assay [1] and in assay [2] was ≤ 0.01 µM each time.

Take `C[C@@H]1[C@H](NC(=O)c2ccc(C(O)C(F)(F)F)cc2)CCCN1c1cnc(C(N)=O)c(Nc2cnn(C)c2)n1` (single isomer, unassigned) [Example D-249]: the IC50 in assay [1] and in assay [2] was ≤ 0.01 µM throughout.

Take `C[C@@H]1[C@H](NC(=O)c2cc(C3CC3)n(C)n2)CCCN1c1cnc(C(N)=O)c(Nc2cnn(C)c2)n1` [Example D-253, 5-[(2R,3R)-3-(5-cyclopropyl-1-methyl-1H-pyrazole-3-amido)-2-methylpiperidin-1-yl]-3-[(1-methyl-1H-pyrazol-4-yl)amino]pyrazine-2-carboxamide]: the IC50 in assay [1] and in assay [2] was ≤ 0.01 µM in each case.

For the compound `C[C@@H]1[C@H](NC(=O)c2ccc(C3CC3)cn2)CCCN1c1cnc(C(N)=O)c(Nc2cnn(C)c2)n1` [Example D-21, 5-[(2R,3R)-3-(5-cyclopropylpyridine-2-amido)-2-methylpiperidin-1-yl]-3-[(1-methyl-1H-pyrazol-4-yl)amino]pyrazine-2-carboxamide], the values for the 50% inhibitory concentration (IC50) in assay [1] and in assay [2] were ≤ 0.01 µM and 0.01 to 0.1 µM, respectively.

For `C[C@@H]1[C@H](NC(=O)c2ccc(C3CC3)cc2)CCCN1c1cnc(C(N)=O)c(Nc2cnn(C3CCN(C(=O)C4CC4)CC3)c2)n1` [Example D-288, 3-{[1-(1-cyclopropanecarbonylpiperidin-4-yl)-1H-pyrazol-4-yl]amino}-5-[(2R,3R)-3-(4-cyclopropylbenzamido)-2-methylpiperidin-1-yl]pyrazine-2-carboxamide], the IC50 in assay [1] and in assay [2] was ≤ 0.01 µM each time.

As to `C[C@@H]1[C@H](NC(=O)c2ccc(C3CC3)cc2C(F)(F)F)CCCN1c1cnc(C(N)=O)c(Nc2cnn(C)c2)n1` [Example D-25, 5-[(2R,3R)-3-[4-cyclopropyl-2-(trifluoromethyl)benzamido]-2-methylpiperidin-1-yl]-3-[(1-methyl-1H-pyrazol-4-yl)amino]pyrazine-2-carboxamide], the 50% inhibitory concentration (IC50) in assay [1] and in assay [2] was 0.01 to 0.1 µM throughout.

With `C[C@@H]1[C@H](NC(=O)c2ccc(C3CC3)cc2)CCCN1c1cnc(C(N)=O)c(Nc2cnn(-c3ccncc3)c2)n1` [Example D-284, 5-[(2R,3R)-3-(4-cyclopropylbenzamido)-2-methylpiperidin-1-yl]-3-{[1-(pyridin-4-yl)-1H-pyrazol-4-yl]amino}pyrazine-2-carboxamide], the half-maximal inhibitory concentration (IC50) in assay [1] and in assay [2] was ≤ 0.01 µM in each case.

Regarding `C[C@@H]1[C@H](NC(=O)c2c[nH]c(C3CC3)n2)CCCN1c1cnc(C(N)=O)c(Nc2cnn(C)c2)n1` [Example D-264, 5-[(2R,3R)-3-(2-cyclopropyl-1H-imidazole-4-amido)-2-methylpiperidin-1-yl]-3-[(1-methyl-1H-pyrazol-4-yl)amino]pyrazine-2-carboxamide], the IC50 in assay [1] and in assay [2] was ≤ 0.01 µM each time.

Consider `C[C@@H]1[C@H](NC(=O)c2ccc(C(C)(C)O)cc2F)CCCN1c1cnc(C(N)=O)c(Nc2cnn(C)c2)n1` [Example D-302, 5-[(2R,3R)-3-[2-fluoro-4-(2-hydroxypropan-2-yl)benzamido]-2-methylpiperidin-1-yl]-3-[(1-methyl-1H-pyrazol-4-yl)amino]pyrazine-2-carboxamide], for which the IC50 in assay [1] and in assay [2] was ≤ 0.01 µM each time.

As to `C[C@@H]1[C@H](NC(=O)c2ccc3c(cnn3C)c2)CCCN1c1cnc(C(N)=O)c(Nc2cnn(C)c2)n1` [Example D-254, N-[(2R,3R)-1-{5-carbamoyl-6-[(1-methyl-1H-pyrazol-4-yl)amino]pyrazin-2-yl}-2-methylpiperidin-3-yl]-1-methyl-1H-indazole-5-carboxamide], the IC50 in assay [1] and in assay [2] was ≤ 0.01 µM throughout.

For `C[C@@H]1[C@H](NC(=O)c2cc3n(n2)CCC3)CCCN1c1cnc(C(N)=O)c(Nc2cnn(C)c2)n1` [Example D-263, 3-[(1-methyl-1H-pyrazol-4-yl)amino]-5-[(2R,3R)-2-methyl-3-{4H,5H,6H-pyrrolo[1,2-b]pyrazole-2-amido}piperidin-1-yl]pyrazine-2-carboxamide], the IC50 in assay [1] and in assay [2] was ≤ 0.01 µM in each case.

`C[C@@H]1[C@H](NC(=O)c2ccc(C3COC3)cc2)CCCN1c1cnc(C(N)=O)c(Nc2cnn(C)c2)n1` [Example D-23, 3-[(1-methyl-1H-pyrazol-4-yl)amino]-5-[(2R,3R)-2-methyl-3-[4-(oxetan-3-yl)benzamido]piperidin-1-yl]pyrazine-2-carboxamide]: the IC50 in assay [1] and in assay [2] was ≤ 0.01 µM throughout.

Turning to `C[C@@H]1[C@H](NC(=O)c2ccc(C(C)(C)C#N)cc2)CCCN1c1cnc(C(N)=O)c(Nc2ccc(OC3CCN(C)CC3)cc2)n1` [Example D-292, 5-[(2R,3R)-3-[4-(1-cyano-1-methylethyl)benzamido]-2-methylpiperidin-1-yl]-3-({4-[(1-methylpiperidin-4-yl)oxy]phenyl}amino)pyrazine-2-carboxamide], the IC50 in assay [1] and in assay [2] was ≤ 0.01 µM each time.

For `C[C@@H]1[C@H](NC(=O)c2ccc(N(C)C)cc2)CCCN1c1cnc(C(N)=O)c(Nc2cnn(C)c2)n1` [Example D-24, 5-[(2R,3R)-3-[4-(dimethylamino)benzamido]-2-methylpiperidin-1-yl]-3-[(1-methyl-1H-pyrazol-4-yl)amino]pyrazine-2-carboxamide], the IC50 in assay [1] and in assay [2] was ≤ 0.01 µM each time.

As to `C[C@@H]1[C@H](NC(=O)c2ccc(C3CC3)cc2)CCCN1c1cnc(C(N)=O)c(Nc2cc(C3CCN(C)CC3)ns2)n1` [Example D-312, 5-[(2R,3R)-3-(4-cyclopropylbenzamido)-2-methylpiperidin-1-yl]-3-{[3-(1-methylpiperidin-4-yl)-1,2-thiazol-5-yl]amino}pyrazine-2-carboxamide], the IC50 in assay [1] and in assay [2] was ≤ 0.01 µM throughout.

Regarding `C[C@@H]1[C@H](NC(=O)c2ccc(C3CC3)cc2)CCCN1c1cnc(C(N)=O)c(Nc2cnn(CC#N)c2)n1` [Example D-287, 3-{[1-(cyanomethyl)-1H-pyrazol-4-yl]amino}-5-[(2R,3R)-3-(4-cyclopropylbenzamido)-2-methylpiperidin-1-yl]pyrazine-2-carboxamide], the IC50 in assay [1] and in assay [2] was ≤ 0.01 µM throughout.

On to `C[C@@H]1[C@H](NC(=O)c2ccc(C3CC3)cc2)CCCN1c1cnc(C(N)=O)c(Nc2ccc(C3CCN(C)CC3)cc2)n1` [Example D-301, 5-[(2R,3R)-3-(4-cyclopropylbenzamido)-2-methylpiperidin-1-yl]-3-{[4-(1-methylpiperidin-4-yl)phenyl]amino}pyrazine-2-carboxamide], for which the IC50 is ≤ 0.01 µM in assay [1] and 0.01 to 0.1 µM in assay [2].

For the compound `C[C@@H]1[C@H](NC(=O)N(C)C)CCCN1c1nnc(C(N)=O)c(Nc2cnn(C)c2)n1` [Example D-286, 3-[(2R,3R)-3-[(dimethylcarbamoyl)amino]-2-methylpiperidin-1-yl]-5-[(1-methyl-1H-pyrazol-4-yl)amino]-1,2,4-triazine-6-carboxamide], the concentration for half-maximal inhibition (IC50) in assay [1] is ≤ 0.01 µM; in assay [2], 0.01 to 0.1 µM.

As to `C[C@@H]1[C@H](NC(=O)c2ccc(C3CC3)cc2)CCCN1c1cnc(C(N)=O)c(Nc2cn(C)nc2C(F)(F)F)n1` [Example D-278, 5-[(2R,3R)-3-(4-cyclopropylbenzamido)-2-methylpiperidin-1-yl]-3-{[1-methyl-3-(trifluoromethyl)-1H-pyrazol-4-yl]amino}pyrazine-2-carboxamide], the IC50 in assay [1] and in assay [2] was > 10 µM in each case.

As for `C[C@@H]1[C@H](NC(=O)c2ccc(C3CC3)cc2)CCCN1c1cnc(C(N)=O)c(Nc2cnn(CCO)c2)n1` [Example D-281, 5-[(2R,3R)-3-(4-cyclopropylbenzamido)-2-methylpiperidin-1-yl]-3-{[I-(2-hydroxyethyl)-1H-pyrazol-4-yl]amino}pyrazine-2-carboxamide], the IC50 is ≤ 0.01 µM in assay [1] and 0.01 to 0.1 µM in assay [2].

On to `C[C@@H]1[C@H](NC(=O)c2ccc(C3CC3)nc2)CCCN1c1cnc(C(N)=O)c(Nc2ccc(N3CCC(F)(F)CC3)cc2)n1` [Example D-305, 5-[(2R,3R)-3-(6-cyclopropylpyridine-3-amido)-2-methylpiperidin-1-yl]-3-{[4-(4,4-difluoropiperidin-1-yl)phenyl]amino}pyrazine-2-carboxamide], for which the results for the IC50 in assay [1] and in assay [2] were ≤ 0.01 µM and 0.01 to 0.1 µM, respectively.

Broadly, the IC50 is the point on the concentration scale where inhibition reaches its midpoint.
